Tests used:
[1] = system: HMEC cells; assay: Proliferation of HMEC cells (GI50); assay type: cell-based; conditions: Homo sapiens, 120 h, 50 μM to 1 nM for 5 days
Method: The HMECs were seeded at 10% confluence and incubated with the molecules at different concentrations (from 50 μM to 1 nM) for 5 days. The GI50 (50% Growth Inhibition) defines the concentration inducing a 50% reduction in proliferation with respect to the control.

[2] = target: T1, PP1α (PP1CA) (Oryctolagus cuniculus, UniProt P62139); assay: Protein phosphatase test (PP1 activity, DiFMUP fluorescent substrate); assay type: biochemical; conditions: for IC50: PP1CA at 80 mU, fluorescent substrate (50 μM), molecules from 50 μM to 50 nM, read-out: PP1 Inhibition IC50
T1 construct: purchased New England Biolabs P0754
T1 sequence (P62139 whole entry): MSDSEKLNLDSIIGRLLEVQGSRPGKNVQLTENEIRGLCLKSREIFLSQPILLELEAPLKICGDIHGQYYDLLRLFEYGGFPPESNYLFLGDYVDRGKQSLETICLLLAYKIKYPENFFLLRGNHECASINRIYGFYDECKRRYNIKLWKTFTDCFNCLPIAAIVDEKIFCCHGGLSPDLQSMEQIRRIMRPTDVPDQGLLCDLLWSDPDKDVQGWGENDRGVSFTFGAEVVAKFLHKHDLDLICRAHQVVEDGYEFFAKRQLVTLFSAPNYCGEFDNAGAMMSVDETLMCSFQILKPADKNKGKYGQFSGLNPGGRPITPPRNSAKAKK
Method: FIG. 13 presents the graph showing the inhibition of the PP1Cα activity by compound 6 in vitro. PP1Cα (New England Biolabs, 30 mU/well) was incubated in the presence of compound 6 at different concentrations and a fluorescent substrate, diFMUP.
Determination of the 1050 was carried out with PP1CA at 80 mU in the presence of a fluorescent substrate
(50 μM) and different concentrations of molecules from 50 μM to 50 nM.
For the activity tests, PP1α (New England Biolabs # P0754) was used at a final concentration of 30 mU or 80 mU for the screening of all the analogues. 6,8-difluoro-4-methylumbelliferyl phosphate (DiFMUP, Invitrogen # D6567) was used as fluorescent substrate at a concentration of […]. All the tests were carried out in a final volume of 100 μl, at 37° C. in 96-microwell plates (Greiner #655096).
Compound 6, combretastatin A4 (CA-4) as well as all the analogues were diluted in 50 μl of PP1 buffer (100 mM Tris-HCl, pH 7.5, 4 mM DTT, 0.2 mM EDTA, 0.5 mM MnCl2) from 50 μM to 50 nM. Corresponding quantities of DMSO were added to control wells. PP1α (30 or 80 mU in 30 μl of PP1 buffer) was added to each well. After incubating for 15 minutes at AT, the substrate was added (in 20 μl of PP1 buffer). After incubating for 20 minutes at 37° C., the fluorescence was measured in a plate fluorometer at 355-460 nm in order to assay the phosphatase activity. The test was carried out three times in duplicate for each condition.

[3] = system: bovine brain tubulin; assay: In vitro tubulin polymerization test (turbidimetry at 350 nm); assay type: biochemical; conditions: molecules at 50 μM, calculated at t=3000 s, DMSO control = 100%
Method: Tubulin was purified from bovine brain using the polymerization-depolymerization process described by (Castoldi M and Popov A V. Protein Expr Purif. 2003, 32(1): pp 83-8).
The in vitro tubulin polymerization tests (at 50 μM) were carried out in the presence of GTP 1 mM in BRB80 buffer (80 mM K-PIPES pH 6.8, 1 mM MgCl2, 1 mM EGTA) at 37° C. The tests were carried out in 96-microwell plates (half-wells) (Costar plates, Corning #3695), in triplicate with a final volume of 70 μl. Tubulin assembly was carried out in the presence of compound 6 or its analogues (all used at a concentration of 50 μM) and was monitored by turbidimetry measurement at 350 nm using a spectrophotometer (Spectramax More, Molecular Devices).
Measurement of the effect of a molecule on polymerization was calculated at t=3000 s taking the value of the control at the same time as being equal to 100%.

[4] = system: HeLa cells; assay: Indirect immunofluorescence: effect on HeLa cells (mitotic arrest, microtubule depolymerization); assay type: cell-based, human; design: key to Effect on Hela at 25 μM / Effect on Hela at 100 μM / Effect on Hela at 50 and 100 μM / Effect on Hela at 50 μM: —: −: no activity on the cells at 25 μM (if there is an effect at high concentrations, this is specified in the table).; *: weak activity (MA and/or slight depolymerization of the MTs and/or slight inhibition of proliferation),; **: average activity (MA and/or moderate depolymerization of the MTs and/or moderate inhibition of proliferation),; ***: strong activity (MA and/or pronounced depolymerization of the MTs and/or pronounced inhibition of proliferation),; ****: very strong activity (MA and/or very pronounced depolymerization of the MTs and/or strong inhibition of proliferation); conditions: 24 hours; for Effect on Hela at 25 μM: mitotic index and/or depolymerization of the MTs
Method: The cells were cultured on slides in 24-well plates and incubated for 24 hours with molecule 6 at different concentrations from 1 to 10 μM.
Corresponding quantities of DMSO were added to the culture medium in the control wells.
The cells were fixed in a solution of PBS with 4% paraformaldehyde (PFA) and 0.1% glutaraldehyde (GA), for 15 minutes and centrifuged at 300 g for the last 10 minutes of the fixing. The slides were rinsed in PBS and the free aldehyde groups were reduced by two successive 5-minute incubations in PBS containing 1 mg/ml of NaBH4.
After one washing with PBS then another with PBST (PBS with 0.5% triton-X-100), the cells are incubated for 30 minutes at ambient temperature with anti α-tubulin monoclonal antibody solution (DM1A clone, Sigma # T6199) diluted to 1:200 in PBST. After 3 10-minute washings with PBST, the cells are incubated for 30 minutes at ambient temperature in a solution of goat anti-mouse polyclonal antibodies coupled with Alexa 488 (1:1000, Molecular Probes # A-11029) and phalloidin coupled with Texas red to label the actin (1:2000, Molecular Probes # T7471), in PBST also containing Hoechst 33258 (1 μg/ml) for labelling the DNA. After 3 10-minute washings in PBST, the slides are mounted on plates in Fluorsave™ mounting medium (Calbiochem #345789) and are observed and analyzed using an Axiovert 200M inverted fluorescence microscope (Zeiss®). The images are produced with a Plan-Apochromat 63× oil objective (Zeiss®) by means of a Coolsnap HQ camera (Roper Scientifics®) and with Metamorph acquisition software (Universal Imaging™ Corporation).
In order to evaluate the effect of the analogues of compound 6 on PHFs and HeLa cells, the immunofluorescence technique described above was used and adapted to a 96-well dish format. The cells were seeded in glass-bottomed 96-well dishes and incubated for 24 hours in the presence of different concentrations of molecules from 100 μM to 50 nM. And in the same way as described above, the cells were fixed and immunolabelled. Analysis of the phenotypes as well as counting the mitotic cells were carried out with the same microscope but using a ×40 objective (Olympus). The molecules were compared with each other with respect to the mitotic arrest induced on PHFs and HeLa cells at 25 and 0.3 μM.
The mitotic index and/or the depolymerization of the MTs were evaluated at 25 μM.

IC50 [2] | SMILES | GI50 [1] | Tubulin polymerization inhibition [3] | Effect on Hela at 25 μM [4] | Effect on Hela at 50 μM ([4]; 50 μM) | Effect on Hela at 50 and 100 μM ([4]; 50 and 100 μM) | inhibition of PP1Cα activity in vitro ([2]; PP1Cα 30 mU/well, diFMUP, negative control)
≤ 9 µM | COc1ccc(-c2c([N+](=O)[O-])c3ccc(OC)cc3c(=O)n2C)cc1 [Compound 66, 7-Methoxy-3-(4-methoxyphenyl)-2-methyl-4-nitroisoquinoline-1(2H)-one] | 1 to 25 µM | + ((+) signifies that the molecule induces tubulin assembly inhibition in vitro comprised between 6 and 25% of the DMSO control.) | * |  |  | 
10 to 24 µM | O=c1c2ccccc2cc(-c2ccccc2)n1Cc1ccc(O)cc1 [Compound 74, 2-(p-hydroxybenzyl)-3penylisoquinolin-1(2H)-one] | 25 to 50 µM |  | — | * |  | 
> 50 µM | COc1ccc(-c2c([N+](=O)[O-])c3ccc(OC)cc3c(=O)n2CCO)cc1 [Compound 68, 2-(2-Hydroxyethyl)-7-methoxy-3-(4-methoxyphenyl)-4-nitroisoquinoline-1(2H)-one] | 25 to 50 µM | — ((−) signifies that the molecule induces little or no tubulin assembly inhibition in vitro: 0+ or − −5% of the DMSO control.) | — |  |  | 
> 50 µM | COc1ccc(-c2[nH]c(=O)c3cc(OC)ccc3c2Cl)cc1 [Compound 14, 4-Chloro-7-methoxy-3-(4-methoxyphenyl)isoquinoline-1(2H)-one] | 25 to 50 µM | +++ ((+++) signifies that the molecule induces tubulin assembly inhibition in vitro of more than 50% with respect to the DMSO control.) | — |  |  | 
25 to 50 µM | COc1ccc(COc2nc(-c3ccc(OC)cc3)c(I)c3ccc(OC)cc23)cc1 [Compound 69, 4-Iodo-7-methoxy-1-(4-methoxybenzyloxy)-3-(4-methoxyphenyl)isoquinoline] | 25 to 50 µM | + ((+) signifies that the molecule induces tubulin assembly inhibition in vitro comprised between 6 and 25% of the DMSO control.) | — |  |  | 
> 50 µM | COc1ccc(-c2cc3ccc(OC)cc3c(=O)[nH]2)cc1 [Compound 4, 7-methoxy-3-(4-methoxyphenyl)isoquinolin-1(2H)-one] | > 50 µM | — ((−) signifies that the molecule induces little or no tubulin assembly inhibition in vitro: 0+ or − −5% of the DMSO control.) | — |  | ** | 
> 50 µM | COc1ccc(-c2[nH]c(=O)c3cc(OC)ccc3c2-c2ccc(OC)cc2)cc1 [Compound 5] | 0.1 to 1 µM | +++ ((+++) signifies that the molecule induces tubulin assembly inhibition in vitro of more than 50% with respect to the DMSO control.) | *** |  |  | 
> 50 µM | COc1ccc(-c2c([N+](=O)[O-])c3ccc(OC)cc3c(=O)n2N)cc1 [Compound 62, 2-Amino-7-methoxy-3-(4-methoxyphenyl)-4-nitroisoquinoline-1(2H)-one] | 1 to 25 µM | — ((−) signifies that the molecule induces little or no tubulin assembly inhibition in vitro: 0+ or − −5% of the DMSO control.) | *** |  |  | 
≤ 9 µM | COc1ccc2c([N+](=O)[O-])c(-c3ccc(C#CC(C)(C)C)cc3)[nH]c(=O)c2c1 [Compound 60, 3-(4-(3,3-dimethylbut-1-ynyl)phenyl)-7-methoxy-4-nitroisoquinolin-1(2H)-one] | 1 to 25 µM | — ((−) signifies that the molecule induces little or no tubulin assembly inhibition in vitro: 0+ or − −5% of the DMSO control.) | *** |  |  | 
10 to 24 µM | COc1ccc(COc2nc(-c3ccc(OC)cc3)c(C(F)(F)F)c3ccc(OC)cc23)cc1 [Compound 70, 7-Methoxy-1-(4-methoxybenzyloxy)-3-(4-methoxyphenyl)-4-(trifluoromethyl)isoquinoline] | 25 to 50 µM | + ((+) signifies that the molecule induces tubulin assembly inhibition in vitro comprised between 6 and 25% of the DMSO control.) | — |  |  | 
> 50 µM | COc1ccc(-c2[nH]c(=O)c3cc(OC)ccc3c2NCCOCCO)cc1 [Compound 50, 4-(2-(2-hydroxyethoxy)ethylamino)-7-methoxy-3-(4-methoxyphenyl)isoquinolin-1(2H)-one] | 25 to 50 µM | +++ ((+++) signifies that the molecule induces tubulin assembly inhibition in vitro of more than 50% with respect to the DMSO control.) | — |  |  | 
25 to 50 µM | COc1ccc(-c2cc3ccc(OC)cc3c(=O)n2CCO)cc1 [Compound 67, 2-(2-Hydroxyethyl)-7-methoxy-3-(4-methoxyphenyl)isoquinoline-1(2H)-one] | 25 to 50 µM | — ((−) signifies that the molecule induces little or no tubulin assembly inhibition in vitro: 0+ or − −5% of the DMSO control.) | — |  |  | 
25 to 50 µM | COc1ccc2c([N+](=O)[O-])c(-c3ccc(C#CC(C)(C)O)cc3)[nH]c(=O)c2c1 [Compound 59] | > 50 µM | — ((−) signifies that the molecule induces little or no tubulin assembly inhibition in vitro: 0+ or − −5% of the DMSO control.) | — |  |  | 
 | COc1ccc(/C=C\c2cc(OC)c(OC)c(OC)c2)cc1O [combretastatin A-4, reference compound] |  |  |  |  |  | does not inhibit PP1 activity
